# Measurements as given in ChEMBL document CHEMBL1156025, “GDC-0449-a potent inhibitor of the hedgehog pathway” (Bioorg Med Chem Lett, 2009).
# Active and inactive are the calls of the source. No cut-off for these calls is given here.
# What was measured:
# [1] = Clearance in rat liver microsomes; type: ADME, Microsome
# [2] = Clearance in dog liver microsomes; type: ADME, Canis lupus familiaris, Microsome
# [3] = Aqueous solubility at pH 1; type: physicochemical
# [4] = Aqueous solubility at pH 6.5; type: physicochemical
# Cytochrome P450 2C9 = Cytochrome P450 2C9 (Homo sapiens, UniProt P11712); assay: Inhibition of CYP2C9; type: ADME
# [5] = Plasma concentration in human Calu6 cells xenografted in nude mouse at 75 mg/kg, po bid measured after 4 hrs post fifth dose; type: ADME, organism-based, Calu-6; set-up: dose 75 mg/kg, route oral
# Plasma = assay: (§1) Fraction unbound in human Calu6 cells xenografted in nude mouse plasma at 75 mg/kg, po bid measured after 4 hrs post fifth dose; type: ADME, organism-based, Calu-6; set-up: dose 75 mg/kg, route oral; details: in vivo, 4 h
# Calu-6 = assay: Inhibition of hedgehog pathway in human Calu6 cells xenografted in nude mouse assessed as decrease in Gli transcription at 75 mg/kg, po bid measured after 4 hrs post fifth dose; type: functional, organism-based; set-up: dose 75 mg/kg
# [6] = as §1; type: ADME, organism-based, Calu-6; set-up: dose 75 mg/kg, route oral; details: nude, plasma
# Chain of Cytochrome P450 2C9 (P11712 whole entry): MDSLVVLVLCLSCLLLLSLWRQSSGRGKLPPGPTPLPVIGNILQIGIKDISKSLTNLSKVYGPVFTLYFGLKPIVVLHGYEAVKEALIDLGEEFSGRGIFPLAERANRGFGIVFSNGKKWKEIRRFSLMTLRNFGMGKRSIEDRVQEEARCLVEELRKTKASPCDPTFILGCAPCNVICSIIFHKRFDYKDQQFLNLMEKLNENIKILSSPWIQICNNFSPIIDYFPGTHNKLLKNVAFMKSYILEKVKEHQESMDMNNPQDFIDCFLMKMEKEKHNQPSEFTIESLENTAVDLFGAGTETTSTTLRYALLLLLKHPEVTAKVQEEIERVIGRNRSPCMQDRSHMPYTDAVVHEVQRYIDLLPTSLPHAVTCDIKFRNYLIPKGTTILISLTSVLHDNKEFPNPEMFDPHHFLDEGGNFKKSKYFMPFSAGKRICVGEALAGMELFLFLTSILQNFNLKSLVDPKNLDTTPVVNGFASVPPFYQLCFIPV
SMILES,CLint scaled [1] [mL/min/kg],CLint scaled [2] [mL/min/kg],solubility [3] [µg/mL],solubility [4] [µg/mL],IC50 (Cytochrome P450 2C9) [nM],concentration at 4 h [5] [µM],Fu (Plasma) [%],fraction unbound at 4 h [6],Activity (Calu-6)
CS(=O)(=O)c1ccc(C(=O)Nc2ccc(Cl)c(-c3ccccn3)c2)c(Cl)c1 [VISMODEGIB],3.7,0.4,> 3000,9.5,,23,9,,
Cc1nc(C(F)(F)F)ccc1C(=O)Nc1ccc(Cl)c(-n2cc3ccccc3n2)c1,99.3,,,,,,,,
CS(=O)(=O)c1ccc(C(=O)Nc2ccc(Cl)c(-c3ccccn3)c2)cc1,1.2,1.4,420,0.5,,14,,0.03,inactive
Cc1nc(C(F)(F)F)ccc1C(=O)Nc1ccc(Cl)c(-c2ccccn2)c1,4.5,1.9,1000,1.8,,0.86,,,inactive

# More lines, main results first:
CLint scaled [1] [mL/min/kg],CLint scaled [2] [mL/min/kg],solubility [3] [µg/mL],solubility [4] [µg/mL],IC50 (Cytochrome P450 2C9) [nM],concentration at 4 h [5] [µM],Fu (Plasma) [%],fraction unbound at 4 h [6],SMILES,Activity (Calu-6)
3,124,300,0.3,,,,,Cc1nc(C(F)(F)F)ccc1C(=O)Nc1ccc(Cl)c(-c2nc3ccccc3[nH]2)c1,
,,,,2500,,,,Cc1nc(C(F)(F)F)ccc1C(=O)Nc1ccc(Cl)c(-c2nc3ccccc3n2C)c1,
10.7,7.4,0.1,0.1,,,,,Cc1nc(C(F)(F)F)ccc1C(=O)Nc1ccc(Cl)c(-c2cnc3ccccc3n2)c1,
